In ChEMBL document CHEMBL3507680, “University of Dundee, Gates Library screen for HepG2 cell viability” one finds cytotoxicity data, which are given here for 93 compounds.

This series can be described thus: Human HepG2 cell viability assay in 384 well format. The class given is toxicity, cell-based. Particulars: HepG2 cells, read-out: Inhibition. Also noted: dose 125 nL, time 70.5 hour; cytotoxicity at 70.5 h: concentration not given beside the values.
As to `O=C(c1cccs1)N1CCc2nnc(COc3cncnc3)n2CC1`, the cytotoxicity at 70.5 h came out at 14.1%.

`O=C(c1ncn2c1CNS(=O)(=O)c1ccccc1-2)N1CCOCC1`: the cytotoxicity at 70.5 h was 13.4%.

On to `O=C(Cc1cccs1)N1CCc2nnc(COc3cncnc3)n2CC1`, for which the cytotoxicity at 70.5 h amounted to 14.8%.

Take `O=C(c1ccc2[nH]ccc2c1)N1Cc2nc(CN3CCCC3)oc2C1`: the cytotoxicity at 70.5 h is -5.17%.

With `CC(=O)N1C[C@H]2C3(CCN(S(C)(=O)=O)CC3)CC[C@@]2(C(=O)N(C)C)C1`, the cytotoxicity at 70.5 h is -8.99%.

For the compound `Cc1cnc(N2CCOC3(CCCN(C(=O)C(C)C)C3)C2)nc1` (stereo not drawn), the cytotoxicity at 70.5 h was -3.83%.

On to `Cn1ccc(CN2CCCC23CCNCC3)n1`, for which the cytotoxicity at 70.5 h is -5.64%.

Turning to `COCCN1C=NC2(CCC(C(=O)Nc3ccc(C)cc3)CC2)C1=O` (stereo not drawn), the cytotoxicity at 70.5 h is -3.77%.

Turning to `CCS(=O)(=O)N1CCC2(CC1)CC[C@@]1(C(=O)NC)CN(C(C)=O)C[C@@H]21`, the cytotoxicity at 70.5 h turned out to be 11%.

Take `CCS(=O)(=O)N1Cc2c(Cn3ccnc3)nn(C(C)C)c2C1`: the cytotoxicity at 70.5 h stood at 10.4%.

As to `CCOc1ncnc2c1CCN(S(=O)(=O)CC)CC2`, the cytotoxicity at 70.5 h is 14.3%.

In the case of `O=C(NC1CCc2[nH]c(=O)ccc2C1)C1CCOCC1` (stereo not drawn), the cytotoxicity at 70.5 h stood at 13.7%.

With `CCOc1ncnc2c1CCN(S(=O)(=O)C1CC1)CC2`, the cytotoxicity at 70.5 h was 14%.

With `CN(C)C(=O)COCC1C[C@@H]2OCCN(Cc3ccco3)[C@H]2C1` (stereo partly drawn), the cytotoxicity at 70.5 h was -15.5%.

With `Cc1ccc(N2Cc3c(CN(C)C)nn(C)c3C2)nn1`, the cytotoxicity at 70.5 h is -14.2%.

In the case of `OCCOCc1n[nH]c2c1CN(Cc1cccs1)C2`, the cytotoxicity at 70.5 h was -2.23%.

Consider `O=C(NCC1CC[C@@]2(CNCCOC2)O1)c1cccnc1` (stereo partly drawn), for which the cytotoxicity at 70.5 h was -2.12%.

Consider `CCS(=O)(=O)N1CCc2ncnc(C)c2CC1`, for which the cytotoxicity at 70.5 h was -1.43%.

As to `CNC(=O)[C@@H]1COC[C@H]2CN(C(=O)COc3ccccc3)C[C@H]21`, the cytotoxicity at 70.5 h is -1.14%.

In the case of `CN(C)C(=O)CN1CCC2(C1)CN(CC1CCOCC1)C2`, the cytotoxicity at 70.5 h is -2.25%.

Consider `Cc1cccc(CN2C[C@@H]3OCCN(S(=O)(=O)N(C)C)[C@@H]3C2)n1`, for which the cytotoxicity at 70.5 h is -6.13%.

For the compound `O=C(c1nc2c(s1)CCCN2C(=O)C1CC1)N1CCOCC1`, the cytotoxicity at 70.5 h was -6.48%.

For the compound `c1ccc(-c2nnn3c2COC(CNCc2ccccn2)C3)cc1` (stereo not drawn), the cytotoxicity at 70.5 h was -5.4%.

As to `CNC(=O)[C@@H]1COC[C@H]2CN(C(=O)c3ccc(C)c(F)c3)C[C@H]21`, the cytotoxicity at 70.5 h is -6.14%.

For the compound `CNC(=O)[C@@H]1C[C@H]2CN(C(=O)c3ccccn3)C[C@H]2N1C(C)C`, the cytotoxicity at 70.5 h was found to be 15.1%.

In the case of `O=c1cc(Cn2cncn2)nc2n1CCCN(Cc1ccsc1)C2`, the cytotoxicity at 70.5 h was -11.7%.

Consider `Cc1ccc(CN2CCCn3c(nc(Cn4ccnc4)cc3=O)C2)o1`, for which the cytotoxicity at 70.5 h was -6.14%.

Take `O=C(N1CCOCC1)[C@@]12CCO[C@@H]1CCN(CC1CCC1)C2`: the cytotoxicity at 70.5 h is -20.9%.

Turning to `O=C(N1CCOCC1)[C@@]12CCO[C@@H]1CCN(C1CCCC1)C2`, the cytotoxicity at 70.5 h is -15.6%.

Take `O=C([C@@H]1CCO[C@@H]2CCN(CC3CC3)C[C@H]21)N1CCCCO1`: the cytotoxicity at 70.5 h was determined as 42.7%.

In the case of `Cc1cccc(N2CCCC3(C2)CN(c2nncs2)CCO3)c1` (stereo not drawn), the cytotoxicity at 70.5 h came to 16.1%.

Take `Cc1cc(C(=O)N2CCn3cnc(COCC4CC4)c3C2)no1`: the cytotoxicity at 70.5 h came out at 0.0472%.

Turning to `O=C(c1cscn1)N1CCn2cnc(COCC3CC3)c2C1`, the cytotoxicity at 70.5 h is -4.79%.

For `Fc1cccc(N2CCOC3(CCCN(c4nncs4)C3)C2)c1` (stereo not drawn), the cytotoxicity at 70.5 h is -2.67%.

`Cn1cc(C2CC3(CCN(C(=O)c4ccsc4)CC3)NC2=O)cn1` (stereo not drawn): the cytotoxicity at 70.5 h is -0.304%.

As to `Cc1ncsc1CN1CC[C@H]2OCC[C@@]2(C(=O)N2CCCO2)C1`, the cytotoxicity at 70.5 h was -2.27%.

With `Cn1cccc1C(=O)N1C[C@@H]2COC[C@]2(CNS(C)(=O)=O)C1`, the cytotoxicity at 70.5 h was -1.05%.

Take `CN(Cc1cn2c(n1)CN(C(=O)N(C)C)CC2)Cc1ccco1`: the cytotoxicity at 70.5 h was -5.21%.

Turning to `CN(C)C(=O)N1CC[C@@H](O)[C@@H]1Cc1cnn(C)c1`, the cytotoxicity at 70.5 h is -1.6%.

As for `Cc1occc1C(=O)N1CCn2cnc(COCC3CC3)c2C1`, the cytotoxicity at 70.5 h is -0.838%.

As for `O=C([C@@H]1C[C@@H]2CCN(Cc3ccco3)C[C@H]2O1)N1CCCO1`, the cytotoxicity at 70.5 h was -0.42%.

On to `Cc1ccoc1C(=O)N1CC(C(=O)N2CCOCC2)C2(CCOCC2)C1` (stereo not drawn), for which the cytotoxicity at 70.5 h was determined as 15.4%.

For `CCO[C@H]1CO[C@@]2(CCCN(C(=O)c3ccc(OC)c(F)c3)C2)C1`, the cytotoxicity at 70.5 h came out at 2.45%.

As for `Cn1ccc(CN2CCOCC23CCNCC3)n1`, the cytotoxicity at 70.5 h is -6.05%.

On to `Cc1nc(CN2C[C@@H]3CN(c4ncccn4)C[C@@H]3C2=O)cs1`, for which the cytotoxicity at 70.5 h was -10.3%.

As to `CCCN1CCCn2c(nc(CNC(=O)c3ccsc3)cc2=O)C1`, the cytotoxicity at 70.5 h is -3.68%.

For `COCC1CC2(CCN(C(C)=O)CC2)CN1Cc1csc(C)n1` (stereo not drawn), the cytotoxicity at 70.5 h is -4.16%.

In the case of `CCc1cnc(N2C[C@H]3CN(Cc4csc(C)n4)C(=O)[C@H]3C2)nc1`, the cytotoxicity at 70.5 h was -8.61%.

As for `CCN1CCCC12CCN(C(=O)c1nccn1C)CC2`, the cytotoxicity at 70.5 h was -7.36%.

As to `Cn1ccnc1C(=O)N1CCC2(CCN2CC2CC2)C1` (stereo not drawn), the cytotoxicity at 70.5 h stood at 9.69%.

On to `CS(=O)(=O)N1C[C@H]2CCCN(Cc3ccsc3)[C@H]2C1`, for which the cytotoxicity at 70.5 h turned out to be 13.4%.

For `COCCN1CCCc2sc(C(=O)N3CCCN(C)CC3)nc21`, the cytotoxicity at 70.5 h was found to be 11.7%.

`COCc1n[nH]c2c1CN(Cc1cccs1)C2`: the cytotoxicity at 70.5 h is -6.13%.

As for `CC(C)CN1CC[C@@H]2[C@@H]1CCN2C(=O)N(C)C`, the cytotoxicity at 70.5 h is -11.8%.

As to `CS(=O)(=O)N1C[C@H]2CCCN(Cc3cccs3)[C@H]2C1`, the cytotoxicity at 70.5 h was found to be 6.54%.

Consider `Cn1nc(Cn2ccnc2)c2c1CN(c1ncccn1)C2`, for which the cytotoxicity at 70.5 h was -4.86%.

For `CN1CCN(C(=O)c2nc3c(s2)CCCN3C(=O)C2CC2)CC1`, the cytotoxicity at 70.5 h was -3.93%.

For `CC(C)CN1CC[C@@H]2[C@@H]1CCN2C(=O)N1CCCC1`, the cytotoxicity at 70.5 h was -3.86%.

On to `Cc1nnn2c1COC(CNCc1ccccn1)C2` (stereo not drawn), for which the cytotoxicity at 70.5 h was -3.64%.

With `CCCN1CCC2(CC1)COc1ccccc1S(=O)(=O)N(CC1CC1)C2`, the cytotoxicity at 70.5 h is -4.67%.

With `CC(C)NC(=O)N1CCN(CC2CC2)CC2(CNC(=O)C2)C1` (stereo not drawn), the cytotoxicity at 70.5 h is -17.7%.

On to `O=C([C@@H]1CCO[C@@H]2CCN(Cc3ccc(F)cc3)C[C@H]21)N1CCCCO1`, for which the cytotoxicity at 70.5 h is -24.4%.

Regarding `O=C(N1CCOCC1)[C@@]12CCO[C@@H]1CCN(C1CCOCC1)C2`, the cytotoxicity at 70.5 h was -4.69%.

Turning to `O=C(N1CCOCC1)[C@@]12CCO[C@@H]1CCN(C1CCC1)C2`, the cytotoxicity at 70.5 h was determined as 46%.

As for `O=C(N1CCOCC1)[C@@]12CCO[C@@H]1CCN(CC1CCCC1)C2`, the cytotoxicity at 70.5 h came out at 49.2%.

On to `Cc1cccc(CN2CCC3(CCCN(C(=O)c4ccoc4)C3)C2=O)n1` (stereo not drawn), for which the cytotoxicity at 70.5 h is -3.14%.

Take `Cc1ccc(C(=O)N2CCn3cnc(COCC4CC4)c3C2)cn1`: the cytotoxicity at 70.5 h was -5.4%.

In the case of `Cc1cccc(CN2CCC3(CCCN(C(=O)N(C)C)C3)C2=O)n1` (stereo not drawn), the cytotoxicity at 70.5 h was -3.06%.

As to `COc1ccc(S(=O)(=O)N2Cc3c(CN(C)C)nn(C)c3C2)cc1`, the cytotoxicity at 70.5 h is -3.13%.

For the compound `CN(Cc1cn2c(n1)CN(C(=O)c1ccc[nH]1)CC2)Cc1ccco1`, the cytotoxicity at 70.5 h turned out to be 0.342%.

As for `Cc1cccc(CN2CCC3(CCCN(C(=O)NC(C)C)C3)C2=O)n1` (stereo not drawn), the cytotoxicity at 70.5 h is -5.48%.

On to `Cc1ncsc1CN1CC[C@H]2OCC[C@@]2(C(=O)N2CCOCC2)C1`, for which the cytotoxicity at 70.5 h is -4.06%.

As to `CS(=O)(=O)N1CCOCC2(CN(Cc3nccs3)CCO2)C1` (stereo not drawn), the cytotoxicity at 70.5 h is 15.5%.

Regarding `Cc1ccc(CN2CC[C@H]3C[C@H](C(=O)N4CCCO4)O[C@@H]3C2)o1`, the cytotoxicity at 70.5 h amounted to 1.31%.

As to `Cn1ccnc1CN1CCC2(CC1)CN(c1ccccc1)C(=O)CO2`, the cytotoxicity at 70.5 h worked out at 4.73%.

As for `COCC1CN(C(=O)c2ccco2)Cc2cn(C)nc21` (stereo not drawn), the cytotoxicity at 70.5 h is 3.61%.

Turning to `CNC(=O)[C@H]1C[C@H]2OCC[C@H]2N(Cc2ccc(F)cc2)C1`, the cytotoxicity at 70.5 h was -4.52%.

`COCCN1CCN(Cc2c(C)noc2C)Cc2ccc(C)nc21`: the cytotoxicity at 70.5 h was -1.53%.

With `CC(C)N1CCCn2c(nc(CNC(=O)c3nccn3C)cc2=O)C1`, the cytotoxicity at 70.5 h was -17.1%.

`CN(C)[C@H]1COC[C@@H]2CN(Cc3ccc4c(c3)OCO4)C[C@@H]21`: the cytotoxicity at 70.5 h is -3.62%.

Regarding `Cc1cnc(N2CCOC3(CCCN(CC(=O)N(C)C)C3)C2)nc1` (stereo not drawn), the cytotoxicity at 70.5 h was -3.5%.

Take `CCOCC1CN(c2ccc(C)nn2)Cc2nn(CC)cc21` (stereo not drawn): the cytotoxicity at 70.5 h was -7%.

Turning to `CN(C)C(=O)CN1CCC2(C1)CN(CC1CCOC1)C2` (stereo not drawn), the cytotoxicity at 70.5 h was 11.8%.

On to `CNC(=O)CNC1CC2(CCN(c3ncccn3)CC2)c2ccccc21` (stereo not drawn), for which the cytotoxicity at 70.5 h is -9.1%.

For `CNC(=O)[C@@H]1C[C@H]2CN(c3ncccn3)C[C@H]2N1C(C)C`, the cytotoxicity at 70.5 h was -1.97%.

Take `CN(C)C(=O)CN1CCOCC2(CCN(CC3CCOCC3)CC2)C1`: the cytotoxicity at 70.5 h is -7.63%.

`COc1ncccc1CN1C[C@@H]2COC[C@]2(COCC(=O)N(C)C)C1`: the cytotoxicity at 70.5 h was -6.1%.

In the case of `Cc1ccc(C(=O)N2C[C@H]3CCC[C@@]3(COCc3ccncc3)C2)cn1`, the cytotoxicity at 70.5 h was -7.42%.

As for `Cc1noc(C)c1CN1CCN(CCN(C)C)c2ncccc2C1`, the cytotoxicity at 70.5 h was -2.96%.

`c1cc(CN2CCCC23CCCN(Cc2ccoc2)C3)ccn1` (stereo not drawn): the cytotoxicity at 70.5 h was -3.1%.

Take `Cc1cccc(CN2CCn3cc(Cn4cccn4)nc3C2)n1`: the cytotoxicity at 70.5 h was -12.9%.

Take `COc1ncccc1CN1C[C@@H]2COC[C@]2(COc2cccnc2)C1`: the cytotoxicity at 70.5 h was -13.7%.

For the compound `CCN(CC)Cc1nc2c(o1)CN(C(=O)c1ccc3[nH]ccc3c1)C2`, the cytotoxicity at 70.5 h is -17%.
